In patent US8394772B2, “Glycoside derivative and uses thereof” (Novartis AG, priority 2009, dated 2013):

Assays:
[1] = target: T1, human sodium glucose cotransporter 2 (Homo sapiens, UniProt P31639); assay: SGLT-2 assay: sodium-dependent 14C-AMG uptake in CHO-hSGLT2 or HEK-hSGLT2 cells; format: cell-based; conditions: n = 1-4, hSGLT2-transfected CHO-K1 or HEK293 cells, read-out: SGLT2 IC50 nM (n = 1-4)
T1 construct: expressed in transfected cells; host or cells: CHO-K1 (ATCC CCL-61) or HEK293 (ATCC CRL-1573), stably transfected with pZeoSV
T1 sequence (P31639 1-672): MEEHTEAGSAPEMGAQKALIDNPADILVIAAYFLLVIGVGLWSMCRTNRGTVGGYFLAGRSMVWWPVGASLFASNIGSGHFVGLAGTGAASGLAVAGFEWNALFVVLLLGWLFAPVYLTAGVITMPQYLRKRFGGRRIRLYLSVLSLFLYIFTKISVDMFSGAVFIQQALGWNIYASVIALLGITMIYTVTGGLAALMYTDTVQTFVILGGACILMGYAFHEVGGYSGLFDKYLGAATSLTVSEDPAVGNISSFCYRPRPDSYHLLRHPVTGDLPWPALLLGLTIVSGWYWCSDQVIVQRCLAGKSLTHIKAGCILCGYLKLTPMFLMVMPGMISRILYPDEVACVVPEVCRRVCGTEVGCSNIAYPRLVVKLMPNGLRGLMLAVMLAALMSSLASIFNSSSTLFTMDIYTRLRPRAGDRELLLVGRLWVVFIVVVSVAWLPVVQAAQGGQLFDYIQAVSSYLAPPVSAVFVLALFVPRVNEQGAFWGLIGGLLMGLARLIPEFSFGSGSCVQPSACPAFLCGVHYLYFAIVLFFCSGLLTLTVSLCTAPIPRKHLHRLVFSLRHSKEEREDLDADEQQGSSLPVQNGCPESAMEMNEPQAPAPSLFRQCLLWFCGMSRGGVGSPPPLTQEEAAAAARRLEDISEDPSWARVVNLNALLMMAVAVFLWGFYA
Procedure: These cell lines transport 14 C-labeled alpha-methyl-glucopyranoside (14 C-AMG, Amersham) into the interior of the cell in sodium-dependent manner.
(§1) The SGLT-2 assay is carried out as follows: CHO-hSGLT2 cells are cultivated in Ham's F12 Medium (BioWhittaker) with 10% fetal calf serum and 250 μg/mL zeocin (Invitrogen), and HEK293-hSGLT2 cells are cultivated in DMEM medium with 10% fetal calf serum and 250 μg/mL zeocin (Invitrogen). The cells are detached from the culture flasks by washing twice with PBS and subsequently treating with trypsin/EDTA. After the addition of cell culture medium the cells are centrifuged, resuspended in culture medium and counted in a Casy cell counter. Then 40,000 cells per well are seeded into a white, 96-well plate coated with poly-D-lysine and incubated overnight at 37° C., 5% CO2. The cells are washed twice with 250 μl of assay buffer (Hanks Balanced Salt Solution, 137 mM NaCl, 5.4 mM KCl, 2.8 mM CaCl2, 1.2 mM MgSO4 and 10 mM HEPES (pH 7.4), 50 μg/mL of gentamycin). 250 μl of assay buffer and 5 μl of test compound are then added to each well and the plate is incubated for a further 15 minutes in the incubator. 5 μl of 10% DMSO are used as the negative control. The reaction is started by adding 5 μl of 14 C-AMG (0.05 μCi) to each well. After 2 hours' incubation at 37° C., 5% CO2, the cells are washed again with 250 μl of PBS ([…]) and then lysed by the addition of 25 μl of 0.1 N NaOH (5 min. at 37° C.). 200 μl of MicroScint20 (Packard) are added to each well and incubation is continued for a further 20 min at 37° C. After this incubation the radioactivity of the 14 C-AMG absorbed is measured in a Topcount (Packard) using a 14 C scintillation program.

human SGLT1 = target: T2, human SGLT1 (Homo sapiens, UniProt P13866); assay: Analogous SGLT1 selectivity test: hSGLT1 expressed in CHO-K1 or HEK293 cells; format: cell-based; conditions: n = 1-4; 14C-AMG uptake, hSGLT1-transfected CHO-K1 or HEK293 cells
T2 construct: expressed in transfected cells; host or cells: CHO-K1 or HEK293
T2 sequence (P13866 1-664): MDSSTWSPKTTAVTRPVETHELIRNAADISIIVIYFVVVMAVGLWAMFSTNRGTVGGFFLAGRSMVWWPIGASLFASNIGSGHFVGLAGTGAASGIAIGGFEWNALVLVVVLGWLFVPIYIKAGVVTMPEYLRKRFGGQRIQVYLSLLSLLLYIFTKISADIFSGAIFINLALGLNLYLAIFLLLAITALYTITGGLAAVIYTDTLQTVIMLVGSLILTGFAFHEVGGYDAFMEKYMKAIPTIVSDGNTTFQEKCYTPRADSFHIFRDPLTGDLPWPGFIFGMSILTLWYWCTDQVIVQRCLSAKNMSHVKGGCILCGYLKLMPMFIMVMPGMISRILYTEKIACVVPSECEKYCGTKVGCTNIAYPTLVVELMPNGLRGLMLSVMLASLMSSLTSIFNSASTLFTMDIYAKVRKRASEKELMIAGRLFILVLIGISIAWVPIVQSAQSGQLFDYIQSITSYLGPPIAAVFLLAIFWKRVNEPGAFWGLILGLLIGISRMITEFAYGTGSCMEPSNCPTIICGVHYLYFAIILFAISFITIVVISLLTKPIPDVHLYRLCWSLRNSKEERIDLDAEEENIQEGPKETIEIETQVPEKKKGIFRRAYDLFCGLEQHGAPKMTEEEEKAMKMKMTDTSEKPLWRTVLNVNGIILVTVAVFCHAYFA
Procedure: as §1
To determine the selectivity with respect to human SGLT1 an analogous test is set up in which the cDNA for hSGLTI (Genbank Ace. No. NM000343) instead of hSGLT2 cDNA is expressed in CHO-K1 or HEK293 cells.

CCOc1ccc(Cc2cc([C@@H]3OC(CO)(CO)[C@@H](O)[C@H](O)[C@H]3O)ccc2Cl)cc1 [Example 10, (3S,4R,5R,6S)-6-[4-Chloro-3-(4-ethoxy-benzyl)-phenyl]-2,2-bis-hydroxymethyl-tetrahydro-pyran-3,4,5-triol]
IC50 [1]: 23 nM
IC50 (human SGLT1): > 30000 nM

Oc1ccc(Cc2cc([C@@H]3OC4(CC4)[C@@H](O)[C@H](O)[C@H]3O)ccc2Cl)cc1 [Example 6, (5S,6R,7R,8S)-5-[4-Chloro-3-(4-hydroxy-benzyl)-phenyl]-4-oxa-spiro[2.5]octane-6,7,8-triol]
IC50 [1]: 2.6 nM
IC50 (human SGLT1): 460 nM

CCOc1ccc(Cc2cc([C@@H]3OC4(CC4)[C@@H](O)[C@H](O)[C@H]3O)ccc2Cl)cc1 [Example 2, (5S,6R,7R,8S)-5-[4-Chloro-3-(4-ethoxy-benzyl)-phenyl]-4-oxa-spiro[2.5]octane-6,7,8-triol]
IC50 [1]: 1 nM
IC50 (human SGLT1): 300 nM

CCOc1ccc(Cc2cc([C@@H]3OC4(CC4)[C@@H](O)[C@H](O)[C@H]3O)ccc2C)cc1 [Example 3, (5S,6R,7R,8S)-5-[3-(4-Ethoxy-benzyl)-4-methyl-phenyl]-4-oxa-spiro[2.5]octane-6,7,8-triol]
IC50 [1]: 0.9 nM
IC50 (human SGLT1): 153 nM
